Experimental data reported in publication PMC8583781, “Identification and Functional Analysis of a Pseudo-Cysteine Protease from the Midgut Transcriptome of Sphenophorus levis” (International Journal of Molecular Sciences, 2021).

Target: T1, Sl-CathL-mutSC
T1 construct: ORF of Sl-CathL-CS (GenBank JZ136744.1) without signal peptide, C-terminal 6x His tag, expressed in P. pastoris KM71H
Test: fluorogenic protease assay (AMC release), Ki by Morrison equation
Type: biochemical, Sphenophorus levis

**Q.** Which Ki does the source give for `CC(C)C[C@H](NC(=O)[C@H]1O[C@@H]1C(=O)O)C(=O)NCCCCN=C(N)N` [E-64] here?
**A.** 38.5 ± 1.2 µM
